Patent US20250312339A1, “METHODS AND COMPOSITIONS COMPRISING A SHP2 INHIBITOR AND A PD-LI BINDING ANTAGONIST” (Genentech, Inc., priority 2022, published 2025)
pIC50: −log10 of the molar value. Entries after “also recorded” stand apart in the source; their conditions may differ.

Legend:
Fc receptors = conditions: cited from earlier work
[1] = in vivo; cited from earlier work
EMT6 mammary carcinoma = test: Anti-tumor efficacy, EMT6 mammary carcinoma in BALB/c mice; format: in vivo
Protocol: Agents. Compound 1 was formulated in 50 mM Sodium Citrate buffer, pH3.0 at a concentration of […]. Anti-PD-L1 mAbs (Mu IgG2a anti-PD-L1, hereafter referred to as anti-PD-L1) and anti-gp120 isotype control (Mu IgG1 anti-gp120; hereafter referred to as Isotype Control) were formulated as a solution in buffer of 20 mM Histidine Acetate, 240 mM Sucrose, 0.02% Tween 20™, pH 5.5. An oral-dosed vehicle control was 50 mM Sodium Citrate buffer, pH3.0.
Cell Lines. The EMT6 mammary carcinoma cell line was cultured in vitro, harvested in log-phase growth, and resuspended in Hank's Balanced Salt Solution (HBSS) containing Matrigel™ (BD Biosciences; San Jose, CA) at a 1:1 ratio by volume for in vivo inoculation. Animals were each inoculated with 0.1×10^6 cells in the mammary gland (5, left) in a volume of […].
Mice tumor models. 10.6 weeks old Balb/c mice bearing tumors in the range of 141-196 mm^3 were evenly distributed into 4 study groups of 10 mice each. The mean tumor volume across all groups was 165 mm^3 at the start of dosing. The mean starting weight was 19.94 g. All concentrations were calculated based on a mean body weight of 20 g and adjusted for 10% body weight loss or gain. Mice in the various groups received the treatment regimens described in Table 1. Mice were dosed for a total of 28 days or until euthanized at first sign of morbidity or if body weight loss was >20% of their weight at the start of administration.
The study extended beyond 28 days and following the cessation of treatment to check for the durability of response and ended at day 102 wherein remaining mice were all euthanized.
Tumor and Body Weight Measurements. Tumor volumes were measured in two perpendicular dimensions (length and width) using Ultra Cal-IV calipers (model 54-10-111; Fred V. Fowler Co.; Newton, MA) and tumor volume was calculated according to the following formula: […]
Tumors that regressed by >50% relative to their starting volume during the study were categorized as partial responders (PRs) while tumors with a final tumor volume corresponding to full regression were categorized as complete responders (CRs). Animal body weights were measured using an Adventura Pro AV812 scale (Ohaus Corporation; Pine Brook, NJ) and percent change in body weight for each group was calculated and plotted (see FIG. 4). Percent weight change was calculated using the following formula: […]
Growth analysis and group comparisons. […] Analyses and comparisons of tumor growth were performed using a package of customized functions in R (Version 3.6.2); R Foundation for Statistical Computing; Vienna, Austria, which integrates software from open source packages (e.g., lme4, mgcv, gamm4, multcomp, settings, and plyr) and several packages from tidyverse (e.g., magrittr, dplyr, tidyr, and ggplot2) (Forrest et al.; Cancer Res 2020; 80(22):5089-97). All raw tumor volume measurements from 0 (minimum) to 8 mm^3 (maximum value) were judged to reflect complete tumor absence and were converted to 8 mm^3 prior to natural log transformation. A generalized additive mixed model (GAMM) was then applied to describe the changes in transformed tumor volumes over time using regression splines with automatically generated spline bases. This approach addresses both repeated measurements from the same study subjects and moderate dropouts before the end of the study. […]

EMT6 mammary tumors = test: Tumor immuno-profiling by flow cytometry after 7 days of treatment; format: in vivo, mice
Protocol: Tumor Immuno-profiling. Anti-tumor immunity was evaluated in EMT6 mammary tumors by flow cytometric immuno-profiling of tumor cells and tumor-infiltrating immune cells the tumor after 7-days of treatment with either vehicle and isotype control antibodies, single agent Compound 1 (60 mg/kg, PO, QD), anti-PD-L1 antibodies (10 mg/kg, IV, first dose, then 5 mg/kg, IP, twice per week), or the combination with of Compound 1 and anti-PD-L1.
The activation status of the TILs was assessed by assessing the expression of cytokines and effector molecules, including interferon gamma (IFNg), tumor necrosis factor alpha (TNFa) and granzyme B (GZMB) from tumor-derived T cells under restimulation conditions using PMA/ionomycin (FIG. 6A). […] There was also an increase of the frequency of CD8+ T cells expressing GZMB in tumors from mice treated with Compound 1 and anti-PD-L1 relative to the vehicle group (p=0.0137). (FIG. 6A). The polyfunctionality of tumor-infiltrating CD8^+ T cells (expressing IFNg and TNFa) was increased when mice were treated with Compound 1 alone or in combination with anti-PD-L1 antibodies relative to the vehicle group (p=0.0008 and p=0.0011, respectively). Markers of T cell activation and exhaustion were also assessed to determine if SHP2 inhibition by Compound 1 alone or in combination with anti-PD-L1 antibodies altered the phenotype of CD8+ T cells in the tumor.

recombinant human SHP2 = target: T1, recombinant human SHP2 (Homo sapiens, UniProt Q06124); test: Inhibition of recombinant human SHP2; format: biochemical; conditions: allosteric inhibitor
T1 sequence (Q06124 1-593): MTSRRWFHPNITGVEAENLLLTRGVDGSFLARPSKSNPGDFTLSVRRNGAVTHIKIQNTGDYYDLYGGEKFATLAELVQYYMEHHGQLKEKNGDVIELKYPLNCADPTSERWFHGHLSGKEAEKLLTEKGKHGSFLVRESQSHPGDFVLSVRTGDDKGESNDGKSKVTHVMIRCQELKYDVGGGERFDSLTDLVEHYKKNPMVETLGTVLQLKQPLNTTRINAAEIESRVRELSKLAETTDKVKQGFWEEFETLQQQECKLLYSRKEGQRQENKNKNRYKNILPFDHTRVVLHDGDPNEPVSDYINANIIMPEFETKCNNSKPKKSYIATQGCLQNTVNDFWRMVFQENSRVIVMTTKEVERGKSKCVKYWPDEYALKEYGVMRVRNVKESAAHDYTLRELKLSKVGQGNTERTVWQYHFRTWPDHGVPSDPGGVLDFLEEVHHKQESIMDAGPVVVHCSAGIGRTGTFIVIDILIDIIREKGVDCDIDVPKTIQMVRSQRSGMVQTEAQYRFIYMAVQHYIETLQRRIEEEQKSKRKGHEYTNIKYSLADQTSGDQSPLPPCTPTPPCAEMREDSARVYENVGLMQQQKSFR
Protocol: (§1) Compound 1 is a potent allosteric inhibitor of recombinant human SHP2, with inhibitory concentration of 50% (IC50) of 0.7 nM. It has been characterized in numerous nonclinical cancer models.

[2] = system: SHP2 (ERKT/2 phosphorylation at Thr202/Tyr204) in EGFR-amplified KYSE-520 cells; test: SHP2 inhibition in cells by level of ERK phosphorylation; format: cell-based; conditions: Homo sapiens
Protocol: as §1

[3] = system: panel of kinases, receptors, ion channels, and transporters; test: Selectivity panel
Protocol: as §1

[4] = Anti-proliferative effect in cancer cell lines, 2D and anchorage-independent 3D formats; format: cell-based; conditions: numerous cell lines, 2D or 3D assays; read-out: IC50, proliferation
Excerpt: The anti-proliferative effect of Compound 1 has been assessed in multiple cancer cell lines using 2D and anchorage-independent 3D formats.

[5] = system: KRAS-mutant NSCLC (NCI-H358); test: Human tumor xenograft model, KRAS-mutant NSCLC; format: in vivo; conditions: oral administration, single agent
Excerpt: (§2) Compound 1 has also been tested for in vivo anti-tumor activity in multiple xenograft models.

[6] = system: EGFR-amplified esophageal squamous cell carcinoma (KYSE-520); test: Human tumor xenograft model, EGFR-amplified esophageal squamous cell carcinoma; format: in vivo; conditions: oral administration, single agent
Excerpt: as §2

[7] = Nonclinical safety studies; format: in vivo
Excerpt: Risks associated with MAPK-Pathway Class Inhibitors. Administration of MAPK-pathway inhibitors has been associated with cardiomyopathy, retinopathy, Cardiomyopathy, CPK increase, thromboembolic events, Phototoxicity, and Reproductive Toxicity.

[8] = Events associated with administration of Compound 1; format: in vivo; conditions: reversible and monitorable events
Excerpt: Risks Associated with Compound 1.

Compound: Atezolizumab: Fc-engineered, humanized, non-glycosylated IgG1 kappa immunoglobulin that binds PD-L1 (SEQ ID NO: 1 and 2)
- Binding to Fc receptors (Fc receptors): minimal binding to Fc receptors
- Tolerability [1]: generally well tolerated

Compound: N[C@@H]1c2ccccc2OC12CCN(c1cnc3c(N4CCCc5ncccc54)n[nH]c3n1)CC2 [Compound 1, (R)-1′-(3-(3,4-dihydro-1,5-naphthyridin-1(2H)-yl)-1H-pyrazolo[3,4-b]pyrazin-6-yl)-3H-spiro[benzofuran-2,4′-piperidin]-3-amine]
- Legacy % TGI (EMT6 mammary carcinoma; AUC-based, relative to vehicle controls, Compound 1 60 mg/kg PO QD, anti-PD-L1 10 mg/kg IV then 5 mg/kg IP twice weekly): 47%
- Anti-tumor efficacy (in words) (EMT6 mammary carcinoma; EMT6 syngeneic tumor model, Compound 1 60 mg/kg QD): no efficacy
- EOS CR (complete responders at end of study) (EMT6 mammary carcinoma; end of study day 102, after cessation of 28-day dosing, 10 mice per group): 0 (0.0%)
- Growth Contrast, LN (GR) (EMT6 mammary carcinoma; relative to vehicle controls, Compound 1 60 mg/kg PO QD, anti-PD-L1 10 mg/kg IV first dose then 5 mg/kg IP twice weekly): −0.033 LN
- PR (partial responders) (EMT6 mammary carcinoma; tumors regressed by >50% relative to starting volume, 10 mice per group): 0 (0.0%)
- IFNg expression on tumor-derived CD8+ T cells (EMT6 mammary tumors; PMA/ionomycin restimulation, vs vehicle, p=0.0002 (Compound 1), p=0.0001 (combination)): increase
- TNFa expression on tumor-derived CD8+ T cells (EMT6 mammary tumors; PMA/ionomycin restimulation, vs vehicle, p=0.0016 (Compound 1), p=0.0035 (combination)): increase
- MFI of PD-L1 expression on tumor cells (CD45 negative) (EMT6 mammary tumors; vs vehicle group, 7 days, p=0.0127 (Compound 1), p=0.0018 (combination)): significant increase
- MFI of MHC-I expression on tumor cells (CD45 negative) (EMT6 mammary tumors; vs vehicle group, 7 days, p=0.0354 (Compound 1), p=0.0044 (combination)): significant increase
- Polyfunctionality of tumor-infiltrating CD8+ T cells (co-expression of IFNg and TNFa) (EMT6 mammary tumors; vs vehicle group, p=0.0008 (Compound 1), p=0.0011 (combination)): increase
- Frequency of M1 population of macrophages (EMT6 mammary tumors; vs vehicle group, p=0.0033 (Compound 1), p=0.0162 (combination)): increase
- M2 population of macrophages (EMT6 mammary tumors; vs vehicle group, p=0.0036 (Compound 1), p=0.0007 (combination)): decrease
- Frequency of CD8 T cell population in tumor microenvironment (EMT6 mammary tumors; vs vehicle group, p=0.0058 (Compound 1), p=0.008 (combination)): increase
- Frequency of MDSCs in tumor (EMT6 mammary tumors; vs vehicle group, p=0.0058 (Compound 1), p=0.0083 (combination)): reduction; also recorded: reduced
- Frequency of CD4 T cell population in tumor microenvironment (EMT6 mammary tumors; vs vehicle group, p=0.0067 (Compound 1), p=0.002 (combination)): increase
- Frequency of TAMs in tumor (EMT6 mammary tumors; vs vehicle group, p=0.0072 (Compound 1), p=0.0098 (combination)): reduction; also recorded: reduced
- Frequency of NK cells in tumor microenvironment (EMT6 mammary tumors; vs vehicle group, p=0.013 (Compound 1), p=0.024 (combination)): increase
- pIC50 (recombinant human SHP2): 9.15
- pIC50 [2]: 8.89
- Selectivity against panel [3]: selectively inhibits SHP2
- pIC50 [4]: > 9.00
- Anti-tumor efficacy, NCI-H358 xenograft [5]: significant anti-tumor efficacy
- Anti-tumor efficacy, KYSE-520 xenograft [6]: significant anti-tumor efficacy
- Nonclinical toxicity findings [7]: did not show evidence of cardiac, pulmonary, renal, thromboembolic, or ophthalmic toxicities
- Events associated with administration [8]: Peripheral Edema, Myelosuppression (e.g., Thrombocytopenia, Anemia), Gastrointestinal Toxicities (e.g., Diarrhea, Nausea, and Vomiting), Elevation of Hepatic Transaminase, and Rash
